# How the values were obtained:
# Trychomonas vaginalis = assay: In vitro Anti-Trichomonal activity (Table VII); format: cell-based
# Experimental: (§1) All the tests were carried out and (when necessary) scored under standard conditions. "MIC" means "minimum inhibitory concentration."
# In vitro Anti-Trichomonal Activity of some 2-aminoalkyl-3-
# phenyl-indenes of formula II.
# Trichophyton rubrum = assay: In vitro antifungal activity, dilutions in Sabouraud's Dextrose Broth (Table IV); format: cell-based; details: 96 h
# Experimental: as §1
# (§2) In vitro Antifungal Activity of 2-amioalkyl-3-phenylindoles
# (§3) of the formula I against Dermetophytes and Aspergillus.
# (§4) Dilutions in Sabouraud's Dextrose Broth.
# Trichophyton megninii = assay: as above; format: cell-based; details: Trichophyton rubrum; after 96 hours
# Experimental: as §1, §2, §3, §4
# Microsporum nanum = assay: as above; format: cell-based; details: Nannizzia nana; after 96 hours
# Experimental: as §1, §2, §3, §4
# Aspergillus niger 6275 = assay: as above; format: cell-based; details: after 96 hours
# Experimental: as §1, §2, §3, §4
# Tricoderm sp. = assay: as above; format: cell-based; details: after 96 hours
# Experimental: as §1, §2, §3, §4
# Trichophyton soudenense = assay: as above; format: cell-based; details: after 96 hours
# Experimental: as §1, §2, §3, §4
# Trichophyton discoides = assay: as above; format: cell-based; details: after 96 hours
# Experimental: as §1, §2, §3, §4
# Trichophyton tonsurans = assay: as above; format: cell-based; details: after 96 hours
# Experimental: as §1, §2, §3, §4
# [1] = test system: Trichophyton schoenleinii; assay: as above; format: cell-based; details: 96 h
# Experimental: as §1, §2, §3, §4
# Microsporum distortum = assay: as above; format: cell-based; details: after 96 hours
# Experimental: as §1, §2, §3, §4
# Aspergillus sp. No. 3 = assay: as above; format: cell-based; details: after 96 hours
# Experimental: as §1, §2, §3, §4
# Trichophyton ferrugineum = assay: as above; format: cell-based; details: Microsporum ferrugineum; after 96 hours
# Experimental: as §1, §2, §3, §4
# Epidermophyton floccosum = assay: as above; format: cell-based; details: after 96 hours
# Experimental: as §1, §2, §3, §4
# Trichophyton ascoides = assay: as above; format: cell-based; details: after 96 hours
# Experimental: as §1, §2, §3, §4
# Trichophyton gallinae = assay: as above; format: cell-based; details: after 96 hours
# Experimental: as §1, §2, §3, §4
# [2] = test system: Trichophyton mentagrophytes; assay: as above; format: cell-based; details: 96 h
# Experimental: as §1, §2, §3, §4
# Pseudomonas acruginosa = assay: In vitro antibacterial activity, dilution in Mueller Hinton Agar (Table I); format: cell-based
# Experimental: as §1
# (§5) In vitro Antibacterial Activity of 2-aminoalkyl-3-phenyl-
# (§6) indoles of the formula I. Dilution in Mueller Hinton Agar pH 7.4
# Proteus rettgeri = assay: as above; format: cell-based; details: Providencia rettgeri; 'Proteus rettgeri mirabilis' [sic]; Mueller Hinton Agar pH 7.4
# Experimental: as §1, §5, §6
# Staphylococcus aureus = assay: as above; format: cell-based; details: Mueller Hinton Agar pH 7.4
# Experimental: as §1, §5, §6
# Enterococcus = assay: as above; format: cell-based
# Experimental: as §1, §5, §6
# Escherichia coli = assay: as above; format: cell-based
# Experimental: as §1, §5, §6
# Streptococcus pyogenes = assay: as above; format: cell-based
# Experimental: as §1, §5, §6
# Salmonella = assay: as above; format: cell-based
# Experimental: as §1, §5, §6
# Proteus vulgaris = assay: as above; format: cell-based; details: strain Napol, Mueller Hinton Agar pH 7.4
# Experimental: as §1, §5, §6
# Proteus mirabilis = assay: as above; format: cell-based; details: Mueller Hinton Agar pH 7.4
# Experimental: as §1, §5, §6
# Proteus morganii = assay: as above; format: cell-based; details: Morganella morganii; strain Valz; Mueller Hinton Agar pH 7.4
# Experimental: as §1, §5, §6
# Klebsiella = assay: as above; format: cell-based
# Experimental: as §1, §5, §6
# Eubacterium lentum = assay: In vitro activity against anaerobes in fluid Thioglycollate medium (Table II); format: cell-based; details: Eggerthella lenta
# Experimental: as §1
# (§7) In vitro activity of 2-aminoalkyl-3-phenylindoles of the formula I
# (§8) against anaerobes in fluid Thioglycollate medium
# Clostridium novyi = assay: as above; format: cell-based
# Experimental: as §1, §7, §8
# Peptostreptococcus = assay: as above; format: cell-based
# Experimental: as §1, §7, §8
# Bacteroides fragilis = assay: as above; format: cell-based
# Experimental: as §1, §7, §8
# Bacteroides corrodens = assay: as above; format: cell-based; details: Eikenella corrodens
# Experimental: as §1, §7, §8
# [3] = Acute toxicity in mice (Table V); details: mouse, in vivo
# Experimental: as §1
# Acute Toxicity of 2-aminoalkyl-3-phenylindoles of the formula I
smiles,measurement,setting,value
"NCc1[nH]c2ccc(Cl)cc2c1-c1c(F)cccc1F [B, 2-aminomethyl-5-chloro-3-(2,6-difluorophenyl)indole]",IC50,"Trychomonas vaginalis; 50% suppression, read-out: Minimal Level to Produce 50% Suppression",32 µg/mL
same,IC90,"Trychomonas vaginalis; 90% suppression, read-out: Minimal Level to Produce 90% Suppression",75 µg/mL
same,MIC,"Trichophyton rubrum; strain 3, after 96 hours",17.5 µg/mL
same,MIC,"Trichophyton rubrum; strain 360, after 96 hours",17.5 µg/mL
same,MIC,"Trichophyton rubrum; strain Blehl, after 96 hours",17.5 µg/mL
same,MIC,"Trichophyton rubrum; strain Haggerty, after 96 hours",17.5 µg/mL
same,MIC,Trichophyton megninii,7.5 µg/mL
same,MIC,Microsporum nanum,17.5 µg/mL
same,MIC,Aspergillus niger 6275,37.5 µg/mL
same,MIC,Tricoderm sp.,7.5 µg/mL
same,MIC,Trichophyton soudenense,17.5 µg/mL
same,MIC,Trichophyton discoides,17.5 µg/mL
same,MIC,Trichophyton tonsurans,200 µg/mL
same,MIC,"[1]; strain 2, after 96 hours",7.5 µg/mL
same,MIC,"[1]; strain not given, after 96 hours",17.5 µg/mL
same,MIC,Microsporum distortum,17.5 µg/mL
same,MIC,Aspergillus sp. No. 3,37.5 µg/mL
same,MIC,Trichophyton ferrugineum,37.5 µg/mL
same,MIC,Epidermophyton floccosum,17.5 µg/mL
same,MIC,Trichophyton ascoides,17.5 µg/mL
same,MIC,Trichophyton gallinae,7.5 µg/mL
same,MIC,"[2]; strain A, after 96 hours",7.5 µg/mL
same,MIC,"[2]; strain B, after 96 hours",7.5 µg/mL
same,MIC,"[2]; strain C, after 96 hours",7.5 µg/mL
same,MIC,"[2]; strain H377, after 96 hours",17.5 µg/mL
same,MIC,"[2]; strain Young, after 96 hours",7.5 µg/mL
same,MIC,"Pseudomonas acruginosa; pH 7.4, strain 130, Mueller Hinton Agar pH 7.4",17.5 µg/mL
same,MIC,"Pseudomonas acruginosa; pH 7.4, strain 138, Mueller Hinton Agar pH 7.4",17.5 µg/mL
same,MIC,"Pseudomonas acruginosa; pH 7.4, strain 762, Mueller Hinton Agar pH 7.4",17.5 µg/mL
same,MIC,"Pseudomonas acruginosa; pH 7.4, strain 8709, Mueller Hinton Agar pH 7.4",17.5 µg/mL
same,MIC,"Pseudomonas acruginosa; pH 7.4, strain Trav. 1, Mueller Hinton Agar pH 7.4",17.5 µg/mL
same,MIC,Proteus rettgeri,17.5 µg/mL
same,MIC,"Staphylococcus aureus; 209P, pH 7.4, strain 209P",7.5 µg/mL
same,MIC,"Staphylococcus aureus; pH 7.4, strain 59N",7.5 µg/mL
same,MIC,"Staphylococcus aureus; pH 7.4, strain Gray",7.5 µg/mL
same,MIC,"Staphylococcus aureus; pH 7.4, strain Wood",7.5 µg/mL
same,MIC,"Staphylococcus aureus; pH 7.4, strain Zeigler",7.5 µg/mL
same,MIC,"Enterococcus; pH 7.4, strain 373, Mueller Hinton Agar pH 7.4",7.5 µg/mL
same,MIC,"Enterococcus; pH 7.4, strain 0928/72, Mueller Hinton Agar pH 7.4",17.5 µg/mL
same,MIC,"Escherichia coli; pH 7.4, strain 777, Mueller Hinton Agar pH 7.4",7.5 µg/mL
same,MIC,"Escherichia coli; pH 7.4, strain 1574-1, Mueller Hinton Agar pH 7.4",7.5 µg/mL
same,MIC,"Escherichia coli; pH 7.4, strain 4195, Mueller Hinton Agar pH 7.4",7.5 µg/mL
same,MIC,"Escherichia coli; pH 7.4, strain 10536, Mueller Hinton Agar pH 7.4",7.5 µg/mL
same,MIC,"Escherichia coli; pH 7.4, strain JR66, Mueller Hinton Agar pH 7.4",7.5 µg/mL
same,MIC,"Streptococcus pyogenes; pH 7.4, strain 27, Mueller Hinton Agar pH 7.4",7.5 µg/mL
same,MIC,"Streptococcus pyogenes; pH 7.4, strain C, Mueller Hinton Agar pH 7.4",17.5 µg/mL
same,MIC,"Streptococcus pyogenes; pH 7.4, strain Cruz, Mueller Hinton Agar pH 7.4",3 µg/mL
same,MIC,"Salmonella; TYPHI, pH 7.4, B typhi, Mueller Hinton Agar pH 7.4",7.5 µg/mL
same,MIC,"Salmonella; pH 7.4, C1 Oao, Mueller Hinton Agar pH 7.4",7.5 µg/mL
same,MIC,"Salmonella; pH 7.4, C2 Cuban, Mueller Hinton Agar pH 7.4",7.5 µg/mL
same,MIC,"Salmonella; pH 7.4, C2 Napc, Mueller Hinton Agar pH 7.4",7.5 µg/mL
same,MIC,"Salmonella; pH 7.4, Salmonella ent. 1, Mueller Hinton Agar pH 7.4",7.5 µg/mL
same,MIC,Proteus vulgaris,17.5 µg/mL
same,MIC,"Proteus mirabilis; pH 7.4, strain Hard",17.5 µg/mL
same,MIC,"Proteus mirabilis; pH 7.4, strain Peras",37.5 µg/mL
same,MIC,Proteus morganii,17.5 µg/mL
same,MIC,"Klebsiella; pH 7.4, strain 121, Mueller Hinton Agar pH 7.4",17.5 µg/mL
same,MIC,"Klebsiella; pH 7.4, strain 3020, Mueller Hinton Agar pH 7.4",7.5 µg/mL
same,MIC,"Klebsiella; pH 7.4, strain AD17, Mueller Hinton Agar pH 7.4",17.5 µg/mL
same,MIC,"Klebsiella; pH 7.4, strain AD22, Mueller Hinton Agar pH 7.4",7.5 µg/mL
same,MIC,"Klebsiella; pH 7.4, strain G3694, Mueller Hinton Agar pH 7.4",7.5 µg/mL
same,MIC,Eubacterium lentum; 48 hrs,17.5 µg/mL
same,MIC,Eubacterium lentum; 72 hrs,17.5 µg/mL
same,MIC,Clostridium novyi; 48 hrs,7.5 µg/mL
same,MIC,Clostridium novyi; 72 hrs,7.5 µg/mL
same,MIC,Peptostreptococcus; 48 hrs,3 µg/mL
same,MIC,Peptostreptococcus; 72 hrs,3 µg/mL
same,MIC,Bacteroides fragilis; 48 hrs,3 µg/mL
same,MIC,Bacteroides fragilis; 72 hrs,3 µg/mL
same,MIC,Bacteroides corrodens; 48 hrs,7.5 µg/mL
same,MIC,Bacteroides corrodens; 72 hrs,7.5 µg/mL
same,LD50,[3]; Oral,~1000 mg/kg
same,LD50,"[3]; ip, I.P.",225 mg/kg
same,LD50,"[3]; sc, S.C.",900 mg/kg

# Reference: patent publication US4122034A, “Antimicrobial compositions” (Schering Corporation, priority 1975, dated 1978)
